According to patent publication US20220062240A1, “METHODS OF TREATING CANCER USING A CLK INHIBITOR” (BioSplice Therapeutics, Inc., priority 2018, published 2022):
Read-outs that look alike come from different tables or passages of the source.

Experiments:
MCF7 = assay: CellTiter-Glo Viability Assay, breast cancer; format: cell-based; settings: Homo sapiens, 96 h; MCF7, breast cancer, four days; read-out: EC50
T47D = assay: CellTiter-Glo Viability Assay, breast cancer; format: cell-based; settings: Homo sapiens, 96 h, breast cancer, four days, read-out: EC50
CAMA1 = assay: CellTiter-Glo Viability Assay, breast cancer; format: cell-based; settings: Homo sapiens, CAMA-1, 96 h; CAMA1, breast cancer, four days; read-out: EC50
MDA-MB-231-Luc = assay: CellTiter-Glo Viability Assay, breast cancer; format: cell-based; settings: Homo sapiens, 96 h; MDA-MB-231-Luc, breast cancer, four days; read-out: EC50
HCC1599 = assay: CellTiter-Glo Viability Assay, breast cancer; format: cell-based; settings: Homo sapiens, 96 h; HCC1599, breast cancer, four days; read-out: EC50
BT-549 = assay: CellTiter-Glo Viability Assay, breast cancer; format: cell-based; settings: Homo sapiens, 96 h; BT-549, breast cancer, four days; read-out: EC50
DU4475 = assay: CellTiter-Glo Viability Assay, breast cancer; format: cell-based; settings: Homo sapiens, DU-4475, 96 h; DU4475, breast cancer, four days; read-out: EC50
ZR-75-1 = assay: CellTiter-Glo Viability Assay, breast cancer; format: cell-based; settings: Homo sapiens, 96 h; ZR-75-1, breast cancer, four days; read-out: EC50
[1] = tested on: ovarian cancer (4 cell lines); assay: CellTiter-Glo Viability Assay, ovarian cancer; format: cell-based; settings: Homo sapiens, inhibition of cancer cell proliferation
[2] = tested on: pancreatic cancer (8 cell lines); assay: CellTiter-Glo Viability Assay, pancreatic cancer; format: cell-based; settings: Homo sapiens, inhibition of cancer cell proliferation
[3] = tested on: liver cancer (3 cell lines); assay: CellTiter-Glo Viability Assay, liver cancer; format: cell-based; settings: Homo sapiens, inhibition of cancer cell proliferation
[4] = tested on: colorectal cancer (6 cell lines); assay: CellTiter-Glo Viability Assay, colorectal cancer; format: cell-based; settings: Homo sapiens, inhibition of cancer cell proliferation
CLK2 = target: T1, CLK2 (Homo sapiens, UniProt P49760); assay: CLK2 kinase activity assay (Z-lyte, Ser/Thr 6 peptide); format: biochemical; settings: recombinant CLK2 kinase, ATP 60 μM; read-out: EC50
T1 construct: purchased Thermo Fisher (Life Technologies), Z'-LYTE Kinase Assay Kits
Experimental: All reactions were performed in duplicate.

CLK3 = CLK3 (Homo sapiens, UniProt P49761); assay: CLK3 kinase activity assay (Z-lyte, Ser/Thr 18 peptide)
[5] = tested on: haematopoietic & lymphoid tumors (13 cell lines); assay: CellTiter-Glo Viability Assay, haematopoietic & lymphoid tumors; format: cell-based; settings: Homo sapiens, inhibition of cancer cell proliferation
[6] = tested on: prostate cancer (5 cell lines); assay: CellTiter-Glo Viability Assay, prostate cancer; format: cell-based; settings: Homo sapiens
[7] = tested on: lung cancer (4 cell lines); assay: CellTiter-Glo Viability Assay, lung cancer; format: cell-based; settings: Homo sapiens, inhibition of cancer cell proliferation
all 50 cell lines = assay: CellTiter-Glo Viability Assay, average across all cell lines; format: cell-based; settings: Homo sapiens; across all 50 cell lines; read-out: average EC50 for inhibition of cancer cell proliferation
Summary of the method: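 Proliferation of a multi-tissue human cancer line panel is assessed over four days at 37° C and 5% CO2, seeding 300-3,000 cells/well. Viability is quantified by CellTiter-Glo luminescence, and EC50 values are calculated.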

T1 sequence (P49760 whole entry): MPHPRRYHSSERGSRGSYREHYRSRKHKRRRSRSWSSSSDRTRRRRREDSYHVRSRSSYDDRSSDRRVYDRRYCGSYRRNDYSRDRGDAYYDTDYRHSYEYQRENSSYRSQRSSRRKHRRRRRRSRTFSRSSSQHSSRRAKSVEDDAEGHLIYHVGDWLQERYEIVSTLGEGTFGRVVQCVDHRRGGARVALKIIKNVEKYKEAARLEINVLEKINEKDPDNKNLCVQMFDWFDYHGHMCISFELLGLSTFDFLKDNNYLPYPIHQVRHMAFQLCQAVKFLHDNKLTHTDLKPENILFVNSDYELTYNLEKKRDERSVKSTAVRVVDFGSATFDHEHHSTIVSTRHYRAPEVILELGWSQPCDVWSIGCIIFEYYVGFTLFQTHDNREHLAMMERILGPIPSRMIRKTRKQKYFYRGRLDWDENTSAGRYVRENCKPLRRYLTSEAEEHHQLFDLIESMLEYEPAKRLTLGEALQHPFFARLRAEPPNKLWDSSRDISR
CLK3, sequence (P49761 whole entry): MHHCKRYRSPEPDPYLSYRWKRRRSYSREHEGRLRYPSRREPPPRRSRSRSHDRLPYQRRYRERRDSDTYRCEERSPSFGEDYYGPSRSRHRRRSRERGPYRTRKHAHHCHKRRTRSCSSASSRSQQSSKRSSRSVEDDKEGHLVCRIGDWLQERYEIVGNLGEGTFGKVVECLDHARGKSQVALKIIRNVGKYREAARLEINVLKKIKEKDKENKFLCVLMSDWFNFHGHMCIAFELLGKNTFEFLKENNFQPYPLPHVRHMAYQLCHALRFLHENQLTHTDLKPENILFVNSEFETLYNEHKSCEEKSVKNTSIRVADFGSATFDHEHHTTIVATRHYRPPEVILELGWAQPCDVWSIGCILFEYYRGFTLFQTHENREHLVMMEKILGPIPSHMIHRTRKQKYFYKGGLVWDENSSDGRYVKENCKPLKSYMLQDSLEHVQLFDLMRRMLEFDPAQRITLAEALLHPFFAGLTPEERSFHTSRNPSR

Compound `CN1CCN(c2ccc(NC(=O)c3n[nH]c4ccc(-c5cncc(NC(=O)C6CC6)c5)cc34)cn2)CC1` [Compound 60] has an EC50 (MCF7) of 1600 nM, an EC50 (T47D) of 296 nM and an EC50 (CAMA1) of 252 nM. It also gave an EC50 (MDA-MB-231-Luc) of 557 nM, an EC50 (HCC1599) of 57 nM and an EC50 (BT-549) of 734 nM. For the same compound, the EC50 (DU4475) was 169 nM, the EC50 (ZR-75-1) was 738 nM and the EC50 ([1]; PA-1, PA1 cell line, read-out: Ovarian cancer, EC50 (μM) PA1) was 0.405 µM. The EC50 ([1]; TOV112D, TOV-112D cell line, read-out: Ovarian cancer, EC50 (μM) TOV-112D) was 0.475 µM, the EC50 ([1]; OV-90 cell line, read-out: Ovarian cancer, EC50 (μM) OV-90) was 1.08 µM and the EC50 ([1]; OVCAR-3 cell line, read-out: Ovarian cancer, EC50 (μM) OVCAR-3) was 0.116 µM. For the same compound, the EC50 ([2]; BXPC-3, BxPC3 cell line, read-out: Pancreatic cancer, EC50 BxPC3) was 2680 nM, the EC50 ([2]; CAPAN-1, Capan1 cell line, read-out: Pancreatic cancer, EC50 Capan1) was 1900 nM and the EC50 ([2]; Capan-2, Capan2 cell line, read-out: Pancreatic cancer, EC50 Capan2) was 1280 nM. It also gave an EC50 ([2]; MIA PaCa-2 cell line, read-out: Pancreatic cancer, EC50 MIA PaCa-2) of 331 nM, an EC50 ([2]; PANC 05.04 cell line, read-out: Pancreatic cancer, EC50 PANC 05.04) of 1170 nM and an EC50 ([2]; PANC-1 cell line, read-out: Pancreatic cancer, EC50 PANC-1) of 3850 nM. It also gave an EC50 ([2]; UPAFII cell line, read-out: Pancreatic cancer, EC50 UPAFII) of 397 nM, an EC50 ([3]; SNU-398, SNU398 cell line, read-out: Liver cancer, EC50 SNU398) of 120 nM and an EC50 ([3]; HEPG2 cell line, read-out: Liver cancer, EC50 HEPG2) of 452 nM. It also gave an EC50 ([3]; PLC/PRF/5 cell line, read-out: Liver cancer, EC50 PLC/PRF/5) of 2030 nM, an EC50 ([4]; HCT-116, HCT116 cell line, read-out: Colorectal cancer, EC50 (μM) HCT116) of 0.639 µM and an EC50 ([4]; HT-29, HT29 cell line, read-out: Colorectal cancer, EC50 (μM) HT29) of 2.52 µM. It also gave an EC50 ([4]; SW-620, SW620 cell line, read-out: Colorectal cancer, EC50 (μM) SW620) of 0.455 µM, an EC50 ([4]; DLD-1 cell line, read-out: Colorectal cancer, EC50 (μM) DLD-1) of 1.76 µM and an EC50 ([4]; SW48 cell line, read-out: Colorectal cancer, EC50 (μM) SW48) of 0.174 µM. It also gave an EC50 ([4]; SW480 cell line, read-out: Colorectal cancer, EC50 (μM) SW480) of 0.486 µM, an EC50 (CLK2) of 0.9 nM and an EC50 (CLK3) of 12.8 nM. The EC50 ([5]; DND41, DND-41 cell line, read-out: Haematopoietic & Lymphoid tumors, EC50 (μM) DND-41) was 0.154 µM, the EC50 ([5]; MV4-11, MV-4-11 cell line, read-out: Haematopoietic & Lymphoid tumors, EC50 (μM) MV-4-11) was 0.088 µM and the EC50 ([5]; Rec1, REC-1 cell line, read-out: Haematopoietic & Lymphoid tumors, EC50 (μM) REC-1) was 1.45 µM. It also gave an EC50 ([5]; SU-DHL-4, SUDHL4 cell line, read-out: Haematopoietic & Lymphoid tumors, EC50 (μM) SUDHL4) of 0.641 µM, an EC50 ([5]; HL-60 cell line, read-out: Haematopoietic & Lymphoid tumors, EC50 (μM) HL-60) of 3.24 µM and an EC50 ([5]; JM1 cell line, read-out: Haematopoietic & Lymphoid tumors, EC50 (μM) JM1) of 0.121 µM. The EC50 ([5]; JURKAT, Clone E6-1 cell line, read-out: Haematopoietic & Lymphoid tumors, EC50 (μM) JURKAT, Clone E6-1) was 1.42 µM, the EC50 ([5]; JeKo-1 cell line, read-out: Haematopoietic & Lymphoid tumors, EC50 (μM) JeKo-1) was 0.039 µM and the EC50 ([5]; KASUMI-1 cell line, read-out: Haematopoietic & Lymphoid tumors, EC50 (μM) KASUMI-1) was 0.685 µM. The EC50 ([5]; Loucy cell line, read-out: Haematopoietic & Lymphoid tumors, EC50 (μM) Loucy) was 0.207 µM, the EC50 ([5]; MOLT-4 cell line, read-out: Haematopoietic & Lymphoid tumors, EC50 (μM) MOLT-4) was 0.503 µM and the EC50 ([5]; TF-1 cell line, read-out: Haematopoietic & Lymphoid tumors, EC50 (μM) TF-1) was 3.05 µM. The EC50 ([5]; TOLEDO cell line, read-out: Haematopoietic & Lymphoid tumors, EC50 (μM) TOLEDO) was 0.219 µM, the EC50 ([6]; DU-145, read-out: Prostate cancer EC50 Du-145) was 1190 nM and the EC50 ([6]; PC-3, PC3 cell line, inhibition of cancer cell proliferation, read-out: Prostate cancer EC50 PC3) was 831 nM. The EC50 ([6]; 22Rv1 cell line, inhibition of cancer cell proliferation, read-out: Prostate cancer EC50 22Rv1) was 360 nM, the EC50 ([6]; LNCap clone FGC cell line, inhibition of cancer cell proliferation, read-out: Prostate cancer EC50 LNCap clone FGC) was 4240 nM and the EC50 ([6]; VCaP (Sigma) cell line, inhibition of cancer cell proliferation, read-out: Prostate cancer EC50 VCaP (Sigma)) was 3470 nM. For the same compound, the EC50 ([7]; A-427, A427 cell line, read-out: Lung cancer, EC50 (μM) A427) was 0.35 µM, the EC50 ([7]; HCC78, HCC-78 cell line, read-out: Lung cancer, EC50 (μM) HCC-78) was 1.69 µM and the EC50 ([7]; NCI-H460 cell line, read-out: Lung cancer, EC50 (μM) NCI-H460) was 2.65 µM. For the same compound, the EC50 ([7]; NCI-H522 cell line, read-out: Lung cancer, EC50 (μM) NCI-H522) was 0.191 µM and the EC50 (all 50 cell lines) was 1070 nM.
